Laboratory results from patent USRE38257E1, “Piperdine derivatives and hypotensives containing the same” (Ajinomoto Co., Inc., priority 1988, dated 2003).

Test system: male spontaneously hypertensive rats
Assay: Decrease in systolic blood pressure in spontaneously hypertensive rats after intravenous bolus injection, indirect (tail-cuff) method
Type: in vivo, rat
Conditions: for Decrease in systolic blood pressure (mmHg) time after administration (hour) 0.5: 0.5 hour after administration; for Decrease in systolic blood pressure (mmHg) time after administration (hour) 4: 4 hours after administration
Experimental: As test animals, four male spontaneously hypertensive rats (weight 400 to 440 g) that were sufficiently adapted for feeding and in which hypertension was confirmed were used.
Physiological saline aqueous solution containing 2.5% Nicolle and 2.5% ethanol of sample was intravenously administered by bolus injection at a dose of 1 ml per 1 kg of body weight. Systolic blood pressure after administration was measured by the indirect (tail-cuff) method.

Compound: CC(=O)Nc1ccc(CCCN2CCC(=C3c4ccccc4C=Cc4ccccc43)CC2)cc1.Cl.Cl [Example 249, 1-(4-Acetylaminophenyl)-3-(4-(5H-Dibenzo[a,d]cyclohepten-5-ylidene)-1-piperidinyl)propane dihydrochloride]
- Decrease in systolic blood pressure (mmHg) time after administration (hour) 0.5 (dose 10 mg/kg i.v. bolus): −121 mmHg
- Decrease in systolic blood pressure (mmHg) time after administration (hour) 4 (dose 10 mg/kg i.v. bolus): −100 mmHg

Compound: CCC(C#N)(CCCN1CCC(=C2c3ccccc3C=Cc3ccccc32)CC1)c1cccc(C(F)(F)F)c1.Cl (centres unmarked) [Example 149, 5-(4-(5H-Dibenzo[a,d]cyclohepten-5-ylidene)-1-piperidinyl)-2-ethyl-2-(3-trifluoromethylphenyl)valeronitrile hydrochloride]
- Decrease in systolic blood pressure (mmHg) time after administration (hour) 0.5 (dose 10 mg/kg i.v. bolus): −116 mmHg
- Decrease in systolic blood pressure (mmHg) time after administration (hour) 4 (dose 10 mg/kg i.v. bolus): −32 mmHg

Compound: Cl.O=C(NCCN1CCCCC1=C1c2ccccc2C=Cc2ccccc21)c1ccccc1[N+](=O)[O-] [Example 291, N-(2-(5H-Dibenzo[a,d]cyclohepten-5-ylidene)-1-piperidinyl)ethyl-2-nitrobenzamide hydrochloride]
- Decrease in systolic blood pressure (mmHg) time after administration (hour) 0.5 (dose 3 mg/kg i.v. bolus): −8 mmHg
- Decrease in systolic blood pressure (mmHg) time after administration (hour) 4 (dose 3 mg/kg i.v. bolus): 15 mmHg

Compound: C1=Cc2ccccc2C(=C2CCN(CCCSc3ccccc3)CC2)c2ccccc21.Cl [Example 23, 3-(4-(5H-Dibenzo[a,d]cyclohepten-5-ylidene)-1-piperidinyl)-1-phenylthiopropane hydrochloride]
- Decrease in systolic blood pressure (mmHg) time after administration (hour) 0.5 (dose 10 mg/kg i.v. bolus): −34 mmHg
- Decrease in systolic blood pressure (mmHg) time after administration (hour) 4 (dose 10 mg/kg i.v. bolus): 10 mmHg

Compound: CCOC(=O)C(CCC1CCCCC1)CN1CCC(=C2c3ccccc3C=Cc3ccccc32)CC1.Cl (centres unmarked) [Example 262]
- Decrease in systolic blood pressure (mmHg) time after administration (hour) 0.5 (dose 10 mg/kg i.v. bolus): −16 mmHg
- Decrease in systolic blood pressure (mmHg) time after administration (hour) 4 (dose 10 mg/kg i.v. bolus): −3 mmHg

Compound: C(=Cc1ccccc1)CN1CCC(=C2c3ccccc3C=Cc3ccccc32)CC1.Cl [Example 38, 1-Cinnamyl-4-(5H-dibenzo[a, d]cyclohepten-5-ylidene)piperidine hydrochloride]
- Decrease in systolic blood pressure (mmHg) time after administration (hour) 0.5 (dose 10 mg/kg i.v. bolus): −140 mmHg
- Decrease in systolic blood pressure (mmHg) time after administration (hour) 4 (dose 10 mg/kg i.v. bolus): −76 mmHg

Compound: CCOC(=O)C1(CCCCN2CCC(=C3c4ccccc4C=Cc4ccccc43)CC2)CCCCC1.Cl [Example 269, 1-(4-(4-(5H-Dibenzo[a,d]cyclohepten-5-ylidene)-1-piperidinyl)-1-butyl)-1-ethoxycarbonxylcyclohexane hydrochloride]
- Decrease in systolic blood pressure (mmHg) time after administration (hour) 0.5 (dose 10 mg/kg i.v. bolus): 143 mmHg
- Decrease in systolic blood pressure (mmHg) time after administration (hour) 4 (dose 10 mg/kg i.v. bolus): −71 mmHg

Compound: O=C(C1CCc2ccccc2C1)N1CCC(=C2c3ccccc3C=Cc3ccccc32)CC1 (centres unmarked) [Example 224, 4-(5H-Dibenzo[a,d]cyclohepten-5-ylidene)-1-(1,2,3,4-tetrahydro-2-naphthoyl)piperidine]
- Decrease in systolic blood pressure (mmHg) time after administration (hour) 0.5 (dose 10 mg/kg i.v. bolus): −69 mmHg
- Decrease in systolic blood pressure (mmHg) time after administration (hour) 4 (dose 10 mg/kg i.v. bolus): −61 mmHg

Compound: Cl.O=[N+]([O-])c1ccc(CCCCN2CCC(=C3c4ccccc4C=Cc4ccccc43)CC2)cc1 [Example 196, 4-(5H-Dibenzo[a,d]cyclohepten-5-ylidene)-1-(4-(4-nitrophenyl)butyl)piperidine hydrochloride]
- Decrease in systolic blood pressure (mmHg) time after administration (hour) 0.5 (dose 10 mg/kg i.v. bolus): −145 mmHg
- Decrease in systolic blood pressure (mmHg) time after administration (hour) 4 (dose 10 mg/kg i.v. bolus): −81 mmHg

Compound: 5-(4-(5H-Dibenzo[a,d]cyclohepten-5-ylidene)-1-piperidinyl-2-(3,4-dimethoxyphenyl)valeronitrile hydrochloride [Example 123]
- Decrease in systolic blood pressure (mmHg) time after administration (hour) 0.5 (dose 10 mg/kg i.v. bolus): −55 mmHg
- Decrease in systolic blood pressure (mmHg) time after administration (hour) 4 (dose 10 mg/kg i.v. bolus): −7 mmHg

Compound: Cl.NS(=O)(=O)c1ccc(C=CCN2CCC(=C3c4ccccc4C=Cc4ccccc43)CC2)cc1 [Example 386, 1-(4-Aminosulfonylcinnamyl)-4-(5H-Dibenzo[a,d]cyclohepten-5-ylidene)piperidine hydrochloride]
- Decrease in systolic blood pressure (mmHg) time after administration (hour) 0.5 (dose 10 mg/kg i.v. bolus): −83 mmHg
- Decrease in systolic blood pressure (mmHg) time after administration (hour) 4 (dose 10 mg/kg i.v. bolus): −96 mmHg

Compound: 2,6-Dimethyl-4-(4-(4-(5H-dibenzo[a,d]cyclohepten-5-ylidene)-1-piperidinyl)butyl)-5-methyl-1,4-dihydropyrydine-3,5-dicarboxylate hydrochloride [Example 285]
- Decrease in systolic blood pressure (mmHg) time after administration (hour) 0.5 (dose 10 mg/kg i.v. bolus): −62 mmHg
- Decrease in systolic blood pressure (mmHg) time after administration (hour) 4 (dose 10 mg/kg i.v. bolus): −7 mmHg

Compound: Cl.Nc1ccccc1C=CCN1CCC(=C2c3ccccc3C=Cc3ccccc32)CC1 [Example 303, 1-(2-Aminocinnamyl)-4-(5H-dibenzo[a,d]cyclohepten-5-ylidene)-1-piperidine hydrochloride]
- Decrease in systolic blood pressure (mmHg) time after administration (hour) 0.5 (dose 3 mg/kg i.v. bolus): −90 mmHg
- Decrease in systolic blood pressure (mmHg) time after administration (hour) 4 (dose 3 mg/kg i.v. bolus): −19 mmHg

Compound: Cl.N#CC1CCC(CCCCN2CCC(=C3c4ccccc4C=Cc4ccccc43)CC2)CC1 (centres unmarked) [Example 297, 1-(1-(4-Cyano)cyclohexyl)-4-(4-(5H-Dibenzo[a,d]cyclohepten-5-ylidene)-1-piperidinyl)butane hydrochloride]
- Decrease in systolic blood pressure (mmHg) time after administration (hour) 0.5 (dose 10 mg/kg i.v. bolus): −129 mmHg
- Decrease in systolic blood pressure (mmHg) time after administration (hour) 4 (dose 10 mg/kg i.v. bolus): −57 mmHg

Compound: COc1cccc(C=CC(=O)N2CCC(=C3c4ccccc4C=Cc4ccccc43)CC2)c1OC [Example 192, 4-(5H-Dibenzo[a,d]cyclohepten-5-ylidene)-1-(2-dimethoxycinnamoyl)piperidine]
- Decrease in systolic blood pressure (mmHg) time after administration (hour) 0.5 (dose 10 mg/kg i.v. bolus): −25 mmHg
- Decrease in systolic blood pressure (mmHg) time after administration (hour) 4 (dose 10 mg/kg i.v. bolus): −36 mmHg

Compound: Cl.Clc1ccccc1CN1CCC(=C2c3ccccc3C=Cc3ccccc32)CC1 [Example 128, 1-(2-Chlorobenzyl)-4-(5H-Dibenzo[a,d]cyclohepten-5-ylidene)piperidine hydrochloride]
- Decrease in systolic blood pressure (mmHg) time after administration (hour) 0.5 (dose 10 mg/kg i.v. bolus): −129 mmHg
- Decrease in systolic blood pressure (mmHg) time after administration (hour) 4 (dose 10 mg/kg i.v. bolus): −8 mmHg

Compound: C1=Cc2ccccc2C(=C2CCN(CCCCC3CCOCC3)CC2)c2ccccc21.Cl [Example 305, 4-(4-(4-(5H-Dibenzo[a,d]cyclohepten-5-ylidene)-1-piperidinyl)-1-butyl)tetrahydropyran hydrochloride]
- Decrease in systolic blood pressure (mmHg) time after administration (hour) 0.5 (dose 10 mg/kg i.v. bolus): −95 mmHg
- Decrease in systolic blood pressure (mmHg) time after administration (hour) 4 (dose 10 mg/kg i.v. bolus): −9 mmHg

Compound: Cl.O=C(CCCN1CCC(=C2c3ccccc3C=Cc3ccccc32)CC1)c1ccc(F)cc1 [Example 125, 4-(4-(5H-Dibenzo[a,d]cyclohepten-5-ylidene)-1-piperidinyl)-4′-fluorobutyrophenone hydrochloride]
- Decrease in systolic blood pressure (mmHg) time after administration (hour) 0.5 (dose 10 mg/kg i.v. bolus): −93 mmHg
- Decrease in systolic blood pressure (mmHg) time after administration (hour) 4 (dose 10 mg/kg i.v. bolus): −14 mmHg

Compound: C1=Cc2ccccc2C(=C2CCN(CCC3Cc4ccccc4C3)CC2)c2ccccc21.Cl [Example 310, 2-(2-(4-(5H-Dibenzo[a,d]cyclohepten-5-ylidene)-1-piperidinyl)-1-ethyl)indane hydrochloride]
- Decrease in systolic blood pressure (mmHg) time after administration (hour) 0.5 (dose 10 mg/kg i.v. bolus): −90 mmHg
- Decrease in systolic blood pressure (mmHg) time after administration (hour) 4 (dose 10 mg/kg i.v. bolus): −18 mmHg

Compound: Cl.c1ccc2c(c1)CCc1ccccc1C2=C1CCN(CCCCC2CCCCC2)CC1 [Example 186]
- Decrease in systolic blood pressure (mmHg) time after administration (hour) 0.5 (dose 10 mg/kg i.v. bolus): −95 mmHg
- Decrease in systolic blood pressure (mmHg) time after administration (hour) 4 (dose 10 mg/kg i.v. bolus): −12 mmHg

Compound: COc1ccc(CN2CCC(=C3c4ccccc4C=Cc4ccccc43)CC2)cc1.Cl [Example 119, 4-(5H-Dibenzo[a,d]cyclohepten-5-ylidene)-1-(4-methoxybenzyl)piperidine hydrochloride]
- Decrease in systolic blood pressure (mmHg) time after administration (hour) 0.5 (dose 10 mg/kg i.v. bolus): −34 mmHg
- Decrease in systolic blood pressure (mmHg) time after administration (hour) 4 (dose 10 mg/kg i.v. bolus): −5 mmHg

Compound: Cl.O=[N+]([O-])c1cccc(CN2CCC(=C3c4ccccc4C=Cc4ccccc43)CC2)c1 [Example 142, 4-(5H-Dibenzo[a,d]cyclohepten-5-ylidene)-1-(3-nitrobenzyl)piperidine hydrochloride]
- Decrease in systolic blood pressure (mmHg) time after administration (hour) 0.5 (dose 10 mg/kg i.v. bolus): −43 mmHg
- Decrease in systolic blood pressure (mmHg) time after administration (hour) 4 (dose 10 mg/kg i.v. bolus): 0 mmHg

Compound: CC(=O)Nc1ccc(CCCCN2CCC(=C3c4ccccc4C=Cc4ccccc43)CC2)cc1.Cl.Cl [Example 197]
- Decrease in systolic blood pressure (mmHg) time after administration (hour) 0.5 (dose 10 mg/kg i.v. bolus): −51 mmHg
- Decrease in systolic blood pressure (mmHg) time after administration (hour) 4 (dose 10 mg/kg i.v. bolus): −26 mmHg

Compound: Cl.O=C1CCCC(CCCCN2CCC(=C3c4ccccc4C=Cc4ccccc43)CC2)C1 (centres unmarked) [Example 301, 3-(4-(4-(5H-Dibenzo[a,d]cyclohepten-5-ylidene)-1-piperidinyl)-1-butyl)cyclohexanoe hydrochloride]
- Decrease in systolic blood pressure (mmHg) time after administration (hour) 0.5 (dose 10 mg/kg i.v. bolus): −100 mmHg
- Decrease in systolic blood pressure (mmHg) time after administration (hour) 4 (dose 10 mg/kg i.v. bolus): −12 mmHg

Compound: Cc1ccc(C(=O)CCCN2CCC(=C3c4ccccc4C=Cc4ccccc43)CC2)cc1C.Cl [Example 198]
- Decrease in systolic blood pressure (mmHg) time after administration (hour) 0.5 (dose 10 mg/kg i.v. bolus): −124 mmHg
- Decrease in systolic blood pressure (mmHg) time after administration (hour) 4 (dose 10 mg/kg i.v. bolus): −25 mmHg

Compound: COc1cc(C(=O)N2CCC(=C3c4ccccc4C=Cc4ccccc43)CC2)cc(OC)c1OC [Example 189, 4-(5H-Dibenzo[a,d]cyclohepten-5-ylidene)-1-(3,4,5-trimethoxybenzoyl)piperidine]
- Decrease in systolic blood pressure (mmHg) time after administration (hour) 0.5 (dose 10 mg/kg i.v. bolus): −72 mmHg
- Decrease in systolic blood pressure (mmHg) time after administration (hour) 4 (dose 10 mg/kg i.v. bolus): −15 mmHg

Compound: CCCCC(C#N)(CCCN1CCC(=C2c3ccccc3C=Cc3ccccc32)CC1)c1cccc(C(F)(F)F)c1.Cl (centres unmarked) [Example 150, 2-Butyl-5-(4-(5H-Dibenzo[a,d]cyclohepten-5-ylidene)-1-piperidinyl)-2-(3-trifluoromethylphenyl)valeronitrile hydrochloride]
- Decrease in systolic blood pressure (mmHg) time after administration (hour) 0.5 (dose 10 mg/kg i.v. bolus): −110 mmHg
- Decrease in systolic blood pressure (mmHg) time after administration (hour) 4 (dose 10 mg/kg i.v. bolus): −47 mmHg

Compound: Cl.Cl.Nc1ccc(CCCN2CCC(=C3c4ccccc4C=Cc4ccccc43)CC2)cc1 [Example 248, 1-(4-Aminophenyl)-3-(4-(5H-Dibenzo[a,d]cyclohepten-5-ylidene)-1-piperidinyl)propane dihydrochloride]
- Decrease in systolic blood pressure (mmHg) time after administration (hour) 0.5 (dose 10 mg/kg i.v. bolus): −101 mmHg
- Decrease in systolic blood pressure (mmHg) time after administration (hour) 4 (dose 10 mg/kg i.v. bolus): −92 mmHg
